# Test results from patent publication US8748436B2, “Carboxylic acid derivatives having a 2,5,7-substituted oxazolopyrimidine ring” (Sanofi, priority 2010, dated 2014).
# Molecular target: T1, human Edg-1 receptor (Homo sapiens, UniProt P21453)
# T1 construct: FLAG (N); expressed in transfected cells; membrane preparation
# Test: GTP-γ-S assay using human Edg-1 receptors (scintillation proximity assay, CHO Flp-In cell membrane preparation)
# Format: biochemical
# Details: test compound at 10 μM; high control 10 μM S1P regarded as 100% activation; [35S]GTP-γ-S binding, triplicate
# Source text: A) GTP-γ-S Assay Using Human Edg-1 Receptors
# In order to determine the Edg-1 receptor activation by the compounds of the invention, a GTP-γ-S (guanosine 5′-[thio]triphosphate) assay for G-protein coupled receptor binding based on the scintillation proximity assay principle was used, employing a cell membrane preparation from a CHO Flp-In cell line which constitutively overexpresses the human Edg-1 receptor.
# The Flp-In™ expression system (Invitrogen, cat. no. K6010-01) allows the generation of stable mammalian cell lines into which the gene of interest has been integrated through homologous recombination at a specific genomic location called Flp Recombination Target (FRT) site by means of a Flp recombinase encoded by the pOG44 expression plasmid. The integration of the pcDNA5/FRT expression construct into the Flp-In host cell line genome results in the transcription of the gene of interest. The stably transfected cells become hygromycin-resistant.
# One day prior to transfection, 200 000 Flp-In-CHO cells were seeded in Ham F-12 medium (Invitrogen, cat. no. 31765) supplemented with 10% fetal calf serum (FCS; Perbio Science, cat. no. SH30068.03) in a 6-well plate and incubated at 37° C./5% CO2 overnight. Using the FuGENE® 6 transfection reagent (Roche, cat. no. 11988387001), cells were cotransfected with the Flp recombinase expression plasmid pOG44 and a modified plasmid additionally containing the edg-1 gene (accession no. NM_001400) termed as pcDNA5-FRT-TO_nFLAG_DEST-EDG-1 with a 9:1 ratio. To obtain the modified pcDNA5-FRT-TO_nFLAG_DEST plasmid, the Invitrogen plasmid pcDNA5/FRT/TO (Invitrogen, cat. no. V6520-20) was adapted to the Gateway® (Invitrogen) cloning system by inserting a Gateway cassette containing attR recombination sites flanking a ccdB gene and a chloramphenicol-resistance gene (Gateway conversion system, Invitrogen, cat. no. 11828-029). In addition a FLAG tag epitope was added before the 5′ att recombination site to allow recombinant expression of N-terminally FLAG-tagged proteins.
# For the transfection of one well, 1.08 μg of pOG44 and 0.12 μg of pcDNA5-FRT-TO_nFLAG_DEST-EDG-1 were mixed to 100 μl of serum-free Ham F-12 medium containing 6 μl of FuGENE® 6 transfection reagent. After 20 min of incubation, the transfection reagent/DNA complex was distributed dropwise on the cells. The cells were incubated for 24 h at 37° C. Then the cells from 3 wells were transferred to a T75 flask (Greiner Cellstar®, cat. no. 658175) containing Ham F-12 medium supplemented with 10% of FCS but without antibiotic and were incubated another 24 h. 48 h after transfection, the medium was replaced by selection medium (Ham F-12 supplemented with 10% of FCS and 300 μg/ml of hygromycin B (Invitrogen, cat. no. 10687-010)). The medium was exchanged every 2 to 3 days until a resistant population of cells had grown. […] After 2 weeks of selection, the cells were transferred into T175 flasks (Greiner Cellstar®, cat. no. 660175) and cultivated for batch production. Cells were harvested from the culture flasks by short treatment (2 to 5 min) with Accutase (PAA, cat. no. L11-007), resuspended in selection medium (see above) and centrifuged at 200×g for 5 min. The cells were resuspended in a mixture of 90% of FCS and 10% of dimethylsulfoxide and stored frozen in liquid nitrogen.
# A membrane preparation was obtained by standard methods from the afore-described CHO Flp-In cell line constitutively overexpressing the human Edg-1 receptor. Briefly, the cryopreserved cells were taken in culture and grown until confluency in T175 cell culture flasks (Becton Dickinson, cat. no. 35 5001). […]
# T1 sequence (P21453 whole entry): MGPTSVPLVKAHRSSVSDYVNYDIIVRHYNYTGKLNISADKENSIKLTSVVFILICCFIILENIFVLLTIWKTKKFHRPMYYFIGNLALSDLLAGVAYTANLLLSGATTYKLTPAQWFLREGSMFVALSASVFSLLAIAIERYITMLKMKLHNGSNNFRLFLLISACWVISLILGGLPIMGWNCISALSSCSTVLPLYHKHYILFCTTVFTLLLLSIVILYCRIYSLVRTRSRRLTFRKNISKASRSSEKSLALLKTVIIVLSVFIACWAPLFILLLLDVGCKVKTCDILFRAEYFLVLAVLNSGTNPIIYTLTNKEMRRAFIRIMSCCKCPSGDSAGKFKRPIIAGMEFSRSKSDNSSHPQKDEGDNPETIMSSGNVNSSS
row,SMILES,% Activation (Edg-1 receptor activation in percent of the activation by 10 μM S1P) [%]
1,"CCCOc1nc(OC(C)CC(F)(F)F)nc2oc(-c3cc(C)c(OCC(=O)O)c(C)c3)nc12 (stereo not shown) [Example 21, {2,6-dimethyl-4-[7-propoxy-5-(3,3,3-trifluoro-1-methyl-propoxy)-oxazolo[5,4--d]pyrimidin-2-yl]-phenoxy}-acetic acid]",81
2,"CCCOc1nc(Oc2cccc(F)c2)nc2oc(-c3cc(C)c(OCC(=O)O)c(C)c3)nc12 [Example 34, {4-[5-(3-fiuorophenoxy)-7-propoxy-oxazolo[5,4-d]pyrimidin-2-yl]-2,6-dimethyl-phenoxy}-acetic acid]",48

# Same assay, conditions: test compound at 10 μM; high control 10 μM S1P regarded as 100% activation; [35S]GTP-γ-S binding, triplicate; read-out: % Activation (Edg-1 receptor activation in percent of the activation by 10 μM S1P)
row,SMILES,activation at 10 µM [%]
1,"CCCOc1nc(Oc2cc(Cl)ccc2C)nc2oc(-c3cc(C)c(OCC(=O)O)c(C)c3)nc12 [Example 56, {4-[5-(5-chloro-2-methylphenoxy)-7-propoxy-oxazolo[5,4-d]pyrimidin-2-yl]-2,6-dimethyl-phenoxy}-acetic acid]",78
2,"CCOc1nc(Oc2cc(F)ccc2C)nc2oc(-c3cc(C)c(OCC(=O)O)c(C)c3)nc12 [Example 36, {4-[7-ethoxy-5-(5-fluoro-2-methylphenoxy)-oxazolo[5,4-d]pyrimidin-2-yl]-2,6-dimethyl-phenoxy}-acetic acid]",116
3,"CCCOc1nc(OCC)nc2oc(-c3cc(C)c(OCC(=O)O)c(C)c3)nc12 [Example 17, [4-(5-ethoxy-7-propoxy-oxazolo[5,4-d]pyrimidin-2-yl)-2,6-dimethyl-phenoxy]-acetic acid]",70
4,"CCCOc1nc(OCC(C)C)nc2oc(-c3cc(C)c(OCC(=O)O)c(C)c3)nc12 [Example 12, [4-(5-isobutoxy-7-propoxy-oxazolo[5,4-d]pyrimidin-2-yl)-2,6-dimethyl-phenoxy]-acetic acid]",97
5,"CCCOc1nc(Oc2cccc(Cl)c2F)nc2oc(-c3cc(C)c(OCC(=O)O)c(C)c3)nc12 [Example 63, {4-[5-(3-chloro-2-fluorophenoxy)-7-propoxy-oxazolo[5,4-d]pyrimidin-2-yl]-2,6-dimethyl-phenoxy}-acetic acid]",67
6,"CCOc1nc(Oc2ccccc2F)nc2oc(-c3cc(C)c(OCC(=O)O)c(C)c3)nc12 [Example 26, {4-[7-ethoxy-5-(2-fluorophenoxy)-oxazolo[5,4-d]pyrimidin-2-yl]-2,6-dimethyl-phenoxy}-acetic acid]",127
7,"CCCOc1nc(Oc2ccccc2C(F)(F)F)nc2oc(-c3cc(C)c(OCC(=O)O)c(C)c3)nc12 [Example 69, {2,6-dimethyl-4-[7-propoxy-5-(2-trifluoromethylphenoxy)-oxazolo[5,4-d]pyrimidin-2-yl]-phenoxy}-acetic acid]",67
8,"CCCOc1nc(OC(C)CC)nc2oc(-c3cc(C)c(OCC(=O)O)c(C)c3)nc12 (stereo not shown) [Example 20, [4-(5-sec-butoxy-7-propoxy-oxazolo[5,4-d]pyrimidin-2-yl)-2,6-dimethyl-phenoxy]-acetic acid]",80
9,"CCCOc1nc(OCC2CCC2)nc2oc(-c3cc(C)c(OCC(=O)O)c(C)c3)nc12 [Example 13, [4-(5-cyclobutylmethoxy-7-propoxy-oxazolo[5,4-d]pyrimidin-2-yl)-2,6-dimethyl-phenoxy]-acetic acid]",99
10,"CCCOc1nc(Oc2cc(F)cc(F)c2)nc2oc(-c3cc(C)c(OCC(=O)O)c(C)c3)nc12 [Example 50, {4-[5-(3,5-difluorophenoxy)-7-propoxy-oxazolo[5,4-d]pyrimidin-2-yl]-2,6-dimethyl-phenoxy}-acetic acid]",86
11,"CCCOc1nc(OCCC(F)(F)F)nc2oc(-c3cc(C)c(OCC(=O)O)c(C)c3)nc12 [Example 16, {2,6-dimethyl-4-[7-propoxy-5-(3,3,3-trifluoro-propoxy)-oxazolo[5,4-d]pyrimidin-2-yl]-phenoxy}-acetic acid]",107
12,"CCCOc1nc(Oc2cccnc2)nc2oc(-c3cc(C)c(OCC(=O)O)c(C)c3)nc12 [Example 7, {2,6-dimethyl-4-[7-propoxy-5-(pyridin-3-yloxy)-oxazolo[5,4-d]pyrimidin-2-yl]-phenoxy}-acetic acid]",87
13,"CCCOc1nc(Oc2cncc(Cl)c2)nc2oc(-c3cc(C)c(OCC(=O)O)c(C)c3)nc12 [Example 48, {4-[5-(5-chloropyridin-3-yloxy)-7-propoxy-oxazolo[5,4-d]pyrimidin-2-yl]-2,6-dimethyl-phenoxy}-acetic acid]",115
14,"CCCOc1nc(Oc2cccc(F)c2F)nc2oc(-c3cc(C)c(OCC(=O)O)c(C)c3)nc12 [Example 49, {4-[5-(2,3-difluorophenoxy)-7-propoxy-oxazolo[5,4-d]pyrimidin-2-yl]-2,6-dimethylphenoxy}-acetic acid]",103
15,"CCCOc1nc(Oc2cc(F)ccc2C)nc2oc(-c3cc(C)c(OCC(=O)O)c(C)c3)nc12 [Example 5, {4-[5-(5-fluoro-2-methyl-phenoxy)-7-propoxy-oxazolo[5,4-d]pyrimidin-2-yl]-2,6-dimethyl-phenoxy}-acetic acid]",91
16,"CCCOc1nc(Oc2cccc(Cl)c2)nc2oc(-c3cc(C)c(OCC(=O)O)c(C)c3)nc12 [Example 10, {4-[5-(3-chloro-phenoxy)-7-propoxy-oxazolo[5,4-d]pyrimidin-2-yl]-2,6-dimethyl-phenoxy}-acetic acid]",86
17,"CCCOc1nc(Oc2ccc(C)c(Cl)c2)nc2oc(-c3cc(C)c(OCC(=O)O)c(C)c3)nc12 [Example 55, {4-[5-(3-chloro-4-methylphenoxy)-7-propoxy-oxazolo[5,4-d]pyrimidin-2-yl]-2,6-dimethylphenoxy}-acetic acid]",66
18,"CCCOc1nc(Oc2cccc(C(F)(F)F)c2Cl)nc2oc(-c3cc(C)c(OCC(=O)O)c(C)c3)nc12 [Example 79, {4-[5-(2-chloro-3-trifluoromethylphenoxy)-7-propoxy-oxazolo[5,4-d]pyrimidin-2-yl]-2,6-dimethylphenoxy}-acetic acid]",82
19,"CCCOc1nc(Oc2cc(F)ccc2Cl)nc2oc(-c3cc(C)c(OCC(=O)O)c(C)c3)nc12 [Example 65, {4-[5-(2-chloro-5-fluorophenoxy)-7-propoxy-oxazolo[5,4-d]pyrimidin-2-yl]-2,6-dimethylphenoxy}-acetic acid]",105
20,"CCCOc1nc(Oc2ccc(Cl)cc2)nc2oc(-c3cc(C)c(OCC(=O)O)c(C)c3)nc12 [Example 46, {4-[5-(4-chlorophenoxy)-7-propoxy-oxazolo[5,4-d]pyrimidin-2-yl]-2,6-dimethylphenoxy}-acetic acid]",59
21,"CCCOc1nc(Oc2cccc(CC)c2)nc2oc(-c3cc(C)c(OCC(=O)O)c(C)c3)nc12 [Example 40, {4-[5-(3-ethylphenoxy)-7-propoxy-oxazolo[5,4-d]pyrimidin-2-yl]-2,6-dimethyl-phenoxy}-acetic acid]",95
22,"CCCOc1nc(Oc2cnsn2)nc2oc(-c3cc(C)c(OCC(=O)O)c(C)c3)nc12 [Example 28, {2,6-dimethyl-4-[7-propoxy-5-([1,2,5]thiadiazol-3-yloxy)-oxazolo[5,4-d]pyrimidin-2-yl]-phenoxy}-acetic acid]",83
23,"CCCOc1nc(Oc2ccc3c(c2)CCC3)nc2oc(-c3cc(C)c(OCC(=O)O)c(C)c3)nc12 [Example 53, {4-[5-(indan-5-yloxy)-7-propoxy-oxazolo[5,4-d]pyrimidin-2-yl]-2,6-dimethylphenoxy}-acetic acid]",55
